Among the data in ChEMBL document CHEMBL1155390, “Isolation and biological evaluation of 8-epi-malyngamide C from the Floridian marine cyanobacterium Lyngbya majuscula” (J Nat Prod, 2010) are IC50 and Activity values, retold here.

pIC50: −log10 of the molar value. Active and inactive are the calls of the source. The calls are words filed in the database; no cut-off is given here.

One may read the pIC50 as −log10 of the IC50, conventionally taken in molar units. The low end stands for a large IC50, the high end for a small IC50.

For experiment [1], the system named is HT-29. Briefly: Cytotoxicity against human HT-29 cells after 48 hrs MTT assay. The format is functional, cell-based. To be noted: HT-29, 48 h. Background: Tetrazolium assays rely on reduction of a dye to a coloured formazan, in cell work by metabolically active cells.
Experiment [2] relates to Escherichia coli. Briefly: Inhibition of quorum sensing in Escherichia coli JM109 harboring pSB1075 assessed as suppression of LasR-mediated 3-oxo-C12-HSL signaling at 10 to 1000 uM after 6.5 hrs by reporter gene assay.
The subject of experiment [3] is Escherichia coli. Briefly: Antibacterial activity against Escherichia coli JM109 harboring pSB1075 assessed as cell density at 10 to 1000 uM after 6.5 hrs.

Compound `CCCCCCC[C@@H](C/C=C/CCC(=O)NC/C(=C/Cl)[C@]12O[C@H]1[C@H](O)CCC2=O)OC` had a pIC50 in experiment [1] of 4.81. Moreover, the result in experiment [2] was Active. Moreover, the result in experiment [3] was inactive.

In turn, `CCCCCCC[C@@H](C/C=C/CCC(=O)NC/C(=C/Cl)[C@]12O[C@H]1[C@@H](O)CCC2=O)OC` [MALYNGAMIDE C] had a pIC50 in experiment [1] of 5.28. Further, the result in experiment [2] was Active. Besides, in experiment [3], the outcome was inactive.
